Results on three compounds are retold here after US20130296316A1, “Antiparasitic Agents Based On mTOR Inhibitors” (priority 2010, published 2013).

“Also recorded” adds a separate entry of the source. Where two headings read alike, the source gives them in different places. A value given as a limit tells only on which side of the number the result lay.

The test system of series [1] is T. brucei brucei Lister 427. Briefly: Potency assessment against T. brucei brucei Lister 427 bloodstream form (AlamarBlue, 72 h). It counts as cell-based, Trypanosoma brucei brucei. On the technique in general: Resazurin is reduced to fluorescent resorufin, in cell work by metabolically active cells.
Series [2] relates to T. b. rhodesiense. Briefly: Potency assessment against T. b. rhodesiense EATRO3 bloodstream form (AlamarBlue, 72 h). It counts as cell-based, Trypanosoma brucei rhodesiense.
Series [3] has as its system T. brucei gambiense, ELIANE strain. Briefly: Potency assessment against T. b. gambiense ELIANE bloodstream form. It counts as cell-based, Trypanosoma brucei gambiense.
The subject of series [4] is T. b. brucei Lister 927. Put plainly: Potency assessment against T. b. brucei Lister 927. It counts as cell-based, Trypanosoma brucei brucei. Conditions: Table 3. As to the method:
Assays were performed using the strain of T. brucei brucei Lister 427 adapted to the laboratory, and the human-infective strain T. b. rhodesiense (EATRO3 ETat1.2 TREU164 [37]). Both strains were grown and tested as bloodstream forms. To establish the EC50, cultures of Trypanosoma brucei and T. b. rhodesiense were treated with two-fold increasing concentrations of compounds (with similar DMSO increasing concentration as control). Cell populations were measured at 72 hours with an Infinite F200 microplate reader (Tecan Austria GmbH, Austria); the determination of cell viability was carried out by the established colorimetric technique AlamarBlue® with modifications, a 96-well plate format spectrophotometric assay which measures the ability of living cells to reduce resazurin [38,39]. Data obtained with T. b. brucei Lister 427 were confirmed by manual counting in a Neubauer chamber for a direct microscopic examination to rule out multinucleated phenotypes that could mask the colorimetric assays, as well as the subtraction of solvent background to dismiss a potential solvent-derived fluorescence. Pentamidine was used as drug control for potency comparison, and T. b. brucei Lister 927 strain was included in our experiments to evaluate the adaptation to medium for the different strains as a variable condition.

Series [5] relates to Leishmania. Conditions: methods similar to those described here; cited from earlier work.
In series [6] the test system is L. major promastigotes. Briefly: Potency assessment against Leishmania major promastigotes (growth, cell counting). It counts as cell-based. Conditions: promastigotes, average of three replicates; read-out: Effective concentration (EC50) L. major.
Series [7] deals with L. donovani promastigotes. Briefly: Potency assessment against Leishmania donovani promastigotes (growth, cell counting). It counts as cell-based. Conditions: promastigotes, average of three replicates; read-out: Effective concentration (EC50) L. donovani promastigotes.
Series [8] relates to L. donovani axenic amastigotes. Briefly: Potency assessment against Leishmania donovani axenic amastigotes (growth, cell counting). It counts as cell-based. Conditions: axenic amastigotes, average of three replicates; read-out: Effective concentration (EC50) L. donovani axenic amastigotes.
For series [9], the system named is T. cruzi trypomastigotes. Briefly: T. cruzi intracellular replication in NIH/3T3 host cells (β-galactosidase, CPRG). It counts as cell-based, Trypanosoma cruzi.
In series [10] the test system is free T. cruzi trypomastigotes. Put plainly: T. cruzi extracellular survival of free trypomastigotes (24 h, CPRG). It counts as cell-based, Trypanosoma cruzi. Here is the method: T. cruzi trypomastigotes from the Tulahuen strain stably expressing the β-galactosidase gene were obtained from the supernatant of infected cultures of LLC-MK2 cells harvested between days 5 and 7. To remove amastigotes, trypomastigotes were allowed to swim out of the pellet of samples that had been centrifuged for 7 min at 2500 rpm.
Free trypomastigotes were rinsed once and placed in 96-well plates at 100,000/well with the compounds in a final volume of 200 μl of DMEM without phenol red supplemented with 2% FBS, Pen-Strep-Glut and 100 μM CPRG. Plates were incubated for 24 h at 37° C. and absorbance was read at 590 nm.

Series [11] concerns T. brucei brucei Lister 427 bloodstream cells. Briefly: Morphological and cell cycle alterations in T. brucei (flow cytometry). It counts as cell-based, Trypanosoma brucei brucei. Here is the method:
Flow cytometry was used to assess cell size and DNA content, to reveal a G1 arrest and inhibition of protein synthesis or G2 arrest and multinucleated cells. […]. After permeabilization with […], saponin (0.5 mg/mL final concentration), the culture was RNAse treated for 30 minutes (10 μg/mL final concentration) and stained with 20 μg/mL propidium iodide immediately before its acquisition in a FACscan cytometer. Cells incubated with equivalent concentration of drug solvent (DMSO) were included in each experiment as control population.
For orientation: In flow cytometry, cells or beads pass a laser one at a time.

Series [12] relates to L. major promastigotes. Put plainly: Cell size and DNA content analysis in Leishmania (flow cytometry). It counts as cell-based, Leishmania major. Here is the method:
L. major log phase promastigotes were inoculated at a concentration of 10^6 cells/ml into media with compounds as indicated, and incubated overnight with varying drug concentrations to assess cell size and DNA content. For cell size, forward scatter of live promastigotes was measured by a FACS flow cytometer (Becton Dickinson), utilizing dye exclusion with 5 μg/ml propidium iodide (PI) to gate for live cells. DNA content was determined by flow cytometry using fixed and permeabilized L. major stained with PI as previously described, but reducing the incubation time with PI and RNase A from 1 hour to 30 minutes. Histogram analysis was performed using CellQuest 3.1 software (BD Bioscience).

Series [13] has as its system T. b. rhodesiense EATRO3. Put plainly: Acute mouse infection model of T. b. rhodesiense. Conditions: for mean survival day (MSD): once per day for four days, untreated died 6th day. It counts as in vivo, Balb/c mice.
Series [14] deals with T. cruzi Y strain. Briefly: Mouse model of T. cruzi infection (luciferase imaging). It counts as in vivo, Balb/c mice. Conditions: 30 mg/kg, 5 days, intraperitoneal. Here is the method:
(§1) The targeted dosage of inhibitors was determined based on the pharmacokinetic studies disclosed by Maira, et al.. […] For L. major, 12.5 mg/kg orally was the highest tolerable dose while 30 mg/kg intraperitoneally was used for the T. cruzi infections. A lower dose was initially used in T. brucei, 5 or 10 mg/kg intraperitoneally.
Balb/c mice were inoculated intraperitoneally with 10^5 trypomastigotes from T. cruzi Y strain expressing firefly luciferase (kindly provided by Dr. Barbara Burleigh, Harvard University). On day 7 post-infection, mice were anesthetized with ketamine/xylazine and injected with 3 mg of D-Luciferin Potassium Salt (Gold Biotechnology) at 20 mg/ml in PBS and imaged in the IVIS Lumina II (Caliper Life Sciences). […] Mice were treated for 5 days and imaged again on day 13. Data is expressed as the ratio between luciferase units in day 13 versus day 7 to determine the progression of infection with and without drug treatment.

Series [15] concerns L. major. Put plainly: Mouse model of L. major infection (bioluminescent imaging). It counts as in vivo, Balb/c mice. Here is the method: as §1
Mouse experiments were done in compliance with policies approved by the Animal Review Board at Washington University. Mice were infected with luciferase expressing L. major (LmFV1LucTK-1) and analyzed by bioluminescent imaging as described. Balb/c mice were infected with 10^5 L. major metacyclic stage parasites purified by gradient centrifugation. Luminescence was measured using an IVIS 100 instrument and analyzed with Living Image software version 2.60.

The subject of series [16] is Leishmania. Put plainly: Leishmania growth inhibition summarised across both species and stages. It counts as cell-based. Conditions: range over L. major and L. donovani, promastigotes and amastigotes; read-out: inhibition of Leishmania across both species and stages.
For series [17], the system named is human cells. Conditions: literature, Table 1; read-out: Inhibition of Cell Growth EC50; cited from earlier work.

As to `N=C(N)c1ccc(OCCCCCOc2ccc(C(=N)N)cc2)cc1` [Pentamidine], the EC50 in series [1] (Trypanosoma brucei, Table 3, read-out: EC50 T. b. brucei 427) is 4.2 ± 0.2 nM; in [2] (Trypanosoma brucei, RHODESIENSE, Table 3, read-out: EC50 T. b. rhodesiense EATRO3), 3.7 ± 0.4 nM; in series [3] (Trypanosoma brucei, GAMBIENSE, Table 3, read-out: EC50 T. b. gambiense ELIANE), 2.5 ± 0.5 nM; in series [4] (Trypanosoma brucei) it was 30.3 ± 10.4 nM.

`C[C@@H]1[C@H](O)[C@@H](C)/C=C/C=C/C=C/C=C/C=C/C=C/C=C/[C@H](O[C@@H]2O[C@H](C)[C@@H](O)[C@H](N)[C@@H]2O)C[C@@H]2O[C@](O)(C[C@@H](O)C[C@@H](O)[C@H](O)CC[C@@H](O)C[C@@H](O)CC(=O)O[C@H]1C)C[C@H](O)[C@H]2C(=O)O` [amphotericin B]: in series [5], the “potency of anti-leishmanial agent” value is on record as 30 nM.

As to NVP-BEZ235, the EC50 in [6] was 110 ± 50 nM; in series [7], 140 ± 80 nM; in series [8], 70 ± 40 nM; in series [9] (read-out: EC50 T. cruzi infection of host cell fibroblasts), 120 nM; in series [1] (Table 3, read-out: EC50 T. b. brucei 427), 16.3 ± 4.7 nM; in [1] (bloodstream form, cell printed in nM, read-out: Effective concentration (EC50) T. b. brucei) it was under 10 nM. Moreover, the EC50 in series [2] (Table 3, read-out: EC50 T. b. rhodesiense EATRO3) was 0.73 ± 0.06 nM; in [2] (bloodstream form, cell printed in nM, read-out: Effective concentration (EC50) T. b. rhodesiense) it was 0.73 ± 0.06 nM; in series [2] (read-out: activity against EATRO3 strain of T. b. rhodesiense) it was 0.73 nM; in series [3] (Table 3, read-out: EC50 T. b. gambiense ELIANE), 0.18 ± 0.2 nM; in series [3] (read-out: EC50 against BSF T. brucei gambiense ELIANE) it was 0.179 nM; in [4], 1.7 ± 0.5 nM. Also, the EC50 in [10] (non-replicating, outside host cells, read-out: EC50 against free trypomastigotes) is over 50000 nM; in series [16] it was 70 to 140 nM; in series [17], 50 nM. Moreover, the “amastigote lysis within host cells” value in series [9] (350 nM, after three days, NIH-3T3 host cells) is recorded as “amastigotes lysis within host cells was observed”. Further, the “potency against BSF T. brucei brucei in words” value in [1] (Lister 427) is recorded as “nanomolar potency”. Also, in series [10], the “activity against free, non-replicating T. cruzi trypomastigotes in words” value was “inactive”. In addition, the “effect on cellular DNA content / cell cycle, T. b. brucei” value in [11] is “appearance of zoids (anucleated cells) [59] and multinucleated cells; also recorded: reduction of G1 and G2 cells”. In series [12], the “effect on cell size and DNA content, L. major promastigotes” value is “G2 growth arrest and increased promastigote size”. The “mean survival day (MSD)” value in series [13] (5 mg/kg intraperitoneal) is 10.8 (±2.4) days; in series [13] (10 mg/kg intraperitoneal), 13.4 (±3.3) days. The same compound had a parasites eliminated in series [13] (10 mg/kg, for four days) of 80%. The parasitemia in [13] (5 or 10 mg/kg intraperitoneal, within two days, detection limit) was < 10^4 parasites/mL. Moreover, the “efficacy against T. cruzi infection” value in [14] was “no efficacy”. The “body weight of drug-treated mice” value in series [15] (12.5 mg/kg/day oral gavage, L. major infected mice) is reported as “significant weight loss; also recorded: severe weight loss”. The “efficacy against L. major infection” value in series [15] (12.5 mg/kg/day, 10 days, oral gavage) is reported as “no efficacy; also recorded: no therapeutic effect”. Further, the “lethality at higher doses” value in series [15] (dosing intraperitoneally at 25 mg/kg/day (higher drug doses)) is given as “lethal”. Moreover, the highest tolerable dose in series [15] (orally, L. major mouse model) is 12.5 mg/kg.
